The results in this text go back to article PMC12254070, “Antimicrobial Peptides Design Using Deep Learning and Rational Modifications: Activity in Bacteria, Candida albicans, and Cancer Cells” (Current Microbiology, 2025).

Ends that are not written are not given here. Bounds are passed on as bounds.

Data set [1] deals with S. aureus ATCC 25923. The format is cell-based, Staphylococcus aureus. As to conditions: ATCC 25923, 24 h. On the procedure: (§1) The antimicrobial activity of the peptides was evaluated with S. aureus ATCC 25923, P. aeruginosa ATCC 27853, Escherichia coli ATCC 25922, Klebsiella quasipneumoniae ATCC 700603, and the yeast C. albicans ATCC 10231. The minimum inhibitory concentration (MIC) was determined following the protocol described by Wiegand et al.. Briefly, bacteria were grown overnight in Mueller–Hinton (MH) medium at 37 °C and 90 rpm, while C. albicans was grown at 30 °C in MH supplemented with 30% YPD (yeast extract, peptone, dextrose). The concentration of bacteria and C. albicans was adjusted to 10^6 CFU/mL. […] Microorganism growth was measured hourly at 600 nm for 24 h, with a 10-s shaking cycle, on a Multiskan Go microplate reader (Thermo Scientific). The experiments with bacteria were incubated at 37 °C, whereas those with C. albicans were incubated at 30 °C. Each peptide was evaluated by duplicate on 2 different days. The MIC was estimated as the minimum peptide concentration at which the microorganism had no growth. […] In all assays, untreated culture medium without peptides was included as a negative control to account for basal microbial growth. All assays were performed in two independent experiments, each conducted with two technical replicates (n = 4 per condition).

For data set [2], the system named is P. aeruginosa ATCC 27853. The format is cell-based, Pseudomonas aeruginosa. As to conditions: ATCC 27853, 24 h. The procedure:
as §1

The subject of data set [3] is human red blood cells. To be noted: red cells of human, 3 h.
Data set [4] concerns C. albicans ATCC 10231. It counts as cell-based, Candida albicans. To be noted: ATCC 10231, 24 h. The procedure: as §1
The subject of data set [5] is human lung adenocarcinoma (A549) cells. The format is cell-based. As to conditions: 24 h. On the procedure:
(§2) The methodology proposed by Zhang et al. […] After 24 h of incubation, the wells were washed twice with PBS, and 10 μL of MTT solution was added to each well at a final concentration of 0.5 mg/mL, and the cell cultures were incubated for 4 h at 37 °C. The solution was removed from each well, and the formazan crystals were dissolved with 100 μL of Sodium Dodecyl Sulfate (0.01 M). After 16 h, absorbance was measured with a MultiSkan Go microplate reader at 570 nm. The untreated wells were used as a negative control, while wells treated with DMSO were used as a positive control for cytotoxicity. The percent viability was determined using the following equation. %viability=[…]-×100% where ABSM is the average absorbance with the treatment and ABSC is the absorbance obtained in the controls (positive and negative).

Data set [6] has as its system human breast adenocarcinoma (MCF-7) cells. It counts as cell-based. To be noted: 24 h. On the procedure: as §2
In data set [7] the test system is Klebsiella quasipneumoniae ATCC 700603. It counts as cell-based. To be noted: ATCC 700603, 24 h. On the procedure:
as §1

Data set [8] relates to Escherichia coli ATCC 25922. It counts as cell-based. As to conditions: ATCC 25922, 24 h. The procedure: as §1

Usually IC50 stands for the point on the concentration scale where inhibition reaches its midpoint. A lower IC50 goes with greater potency in that assay. As to AGLARKWLKLPIGVLAR [OrP1], in data set [1], the concentration for half-maximal inhibition (IC50) worked out at 24.2 µM, the “MBC S.a” value is reported as > 99.3 (> 99.3) µM and the “MIC S.a” value was > 99.3 (> 99.3) µM. Also, in data set [2], the IC50 was 14.8 µM, the “MBC P.a” value was found to be 99.3 µM and the “MIC P.a” value was determined as 49.7 µM. Besides, in data set [3], the “% Hemolysis at 50 µM” value was 1.2%. Moreover, in data set [4], the IC50 amounted to 14.8 µM and the “MFC C.a” value was 49.7 µM. The IC50 in data set [5] was found to be 21.7 µM. Further, in data set [6], the concentration for half-maximal inhibition (IC50) amounted to 9.1 µM. Moreover, in data set [7], inhibition was half-maximal at 22.4 µM (IC50), the “MBC K.q” value is recorded as more than 99.3 µM and the “MIC K.q” value came out at 49.7 µM. In data set [8], the IC50 worked out at 5.8 µM, the MBC E.c came to 12.4 µM and the MIC E.c amounted to 12.4 µM.

For FKKLLKFLKWLF [VeP1], in data set [1], the IC50 amounted to 2.1 µM and the “MBC S.a” value is 3.5 µM. In data set [2], this sequence registered an IC50 of 31.7 µM, an MBC P.a of 56.6 µM and an MIC P.a of 56.6 µM. Moreover, the “MHC (minimum hemolytic concentration)” value in data set [3] is 4.25 µM. In addition, in data set [4], the 50% inhibitory concentration (IC50) is 31.7 µM and the “MFC C.a” value is more than 113.1 µM. In data set [7], the IC50 came out at 5.9 µM, the MBC K.q was determined as 28.3 µM and the MIC K.q turned out to be 28.3 µM. Besides, in data set [8], the IC50 was 5.8 µM and the “MBC E.c” value was found to be 14.1 µM.

Consider IGKVWKVAKKLIKI [OrP9M], for which, in data set [1], the IC50 worked out at 4.5 µM, the “MBC S.a” value was determined as 31.1 µM and the “MIC S.a” value is given as 15.6 µM. In data set [2], this sequence displayed an IC50 of 4.9 µM and an MBC P.a of 1.9 µM. In data set [4], this sequence displayed an IC50 of 4.9 µM. In data set [5], this sequence displayed an IC50 of 25.1 µM. The same sequence showed an IC50 in data set [6] of less than 6.25 µM. In data set [7], this sequence displayed an IC50 of 3.8 µM, an MBC K.q of 15.6 µM and an MIC K.q of 15.6 µM. In addition, in data set [8], the concentration for half-maximal inhibition (IC50) is 3.2 µM, the MBC E.c is 7.8 µM and the MIC E.c was found to be 7.8 µM.

In data set [1], AGLKKLAKKLGKVVL [OrP3] showed an IC50 of 10.1 µM, an MBC S.a of 27.8 µM and an MIC S.a of 27.8 µM. In data set [2], this sequence had an IC50 of 9.6 µM, an MBC P.a of 13.9 µM and an MIC P.a of 13.9 µM. Moreover, the “% Hemolysis at 50 µM” value in data set [3] came out at 0.0%. In data set [4], half-maximal inhibition (IC50) required 9.6 µM and the “MFC C.a” value was determined as 27.8 µM. In data set [5], the midpoint of inhibition, the IC50, lay at 33.1 µM. It took 23.2 µM to reach half-maximal inhibition in data set [6] (IC50). In data set [7], the half-inhibitory concentration (IC50) was 6 µM, the “MBC K.q” value was 27.8 µM and the “MIC K.q” value worked out at 13.9 µM. In data set [8], this sequence had an IC50 of 1.6 µM, an MBC E.c of 3.5 µM and an MIC E.c of 3.5 µM.

As to AIVKKIGKIWKNFIK [VeP2M], in data set [1], 7.9 µM corresponded to half-maximal inhibition (IC50), the “MBC S.a” value is recorded as 31.3 µM and the “MIC S.a” value amounted to 15.6 µM. Besides, in data set [2], the IC50 came out at 5.9 µM, the “MBC P.a” value was 15.6 µM and the “MIC P.a” value was 7.8 µM. Besides, in data set [3], the “MHC (minimum hemolytic concentration)” value was 68.64 µM and the “% Hemolysis at 50 µM” value is reported as 7.1%. Besides, in data set [4], the IC50 amounted to 5.9 µM and the “MFC C.a” value amounted to 31.3 µM. Also, the IC50 in data set [5] was found to be 34.9 µM. Further, the IC50 in data set [6] came to 21.9 µM. Further, in data set [7], it took 9.2 µM to reach half-maximal inhibition (IC50), the “MBC K.q” value is given as 62.6 µM and the “MIC K.q” value turned out to be 31.3 µM. In data set [8], this sequence had an IC50 of 1.6 µM, an MBC E.c of 3.9 µM and an MIC E.c of 3.9 µM.

Regarding IKPVVKGIKGVKNFFK [VeP2], in data set [1], the IC50 came to 53.2 µM, the “MBC S.a” value is recorded as more than 102.9 µM and the “MIC S.a” value is on record as 51.5 µM. In addition, in data set [2], 21.9 µM corresponded to half-maximal inhibition (IC50), the “MBC P.a” value stood at 102.9 µM and the “MIC P.a” value is on record as 51.5 µM. Besides, the “% Hemolysis at 50 µM” value in data set [3] came out at 3.0%. Also, in data set [4], the IC50 stood at 23.7 µM and the “MFC C.a” value is reported as more than 102.9 µM. In data set [5], this sequence registered an IC50 of 69.6 µM. Moreover, the IC50 in data set [6] worked out at 34.2 µM. In addition, in data set [7], the IC50 was 30.7 µM, the MBC K.q was more than 103 µM and the MIC K.q was 103 µM. In data set [8], this sequence came in with a 50% inhibitory concentration (IC50) of 22.8 µM, an MBC E.c of 103 µM and an MIC E.c of 103 µM.

Take FKLFCVAKRLPKKVL [OrP9]: in data set [1], the “MBC S.a” value is > 119.2 (> 119.2) µM and the “MIC S.a” value was > 119.2 (> 119.2) µM. Moreover, in data set [2], inhibition was half-maximal at 44.1 µM (IC50), the “MBC P.a” value came to 29.8 µM and the “MIC P.a” value was 14.9 µM. Further, in data set [4], half-maximal inhibition (IC50) required 44.1 µM and the “MFC C.a” value is given as > 119.2 (> 119.2) µM. In data set [6], the IC50 was more than 100 µM. In addition, in data set [7], it took 93 µM to reach half-maximal inhibition (IC50), the “MBC K.q” value is > 119.2 (> 119.2) µM and the “MIC K.q” value is > 119.2 (> 119.2) µM. Also, in data set [8], the IC50 came to 4.9 µM, the MBC E.c was determined as 7.5 µM and the MIC E.c amounted to 7.5 µM.

On to LKRLAKLLKKWIKA [OrP4M], for which, in data set [1], the IC50 turned out to be 3.4 µM, the “MBC S.a” value was 14.1 µM and the “MIC S.a” value was 7.1 µM. Besides, in data set [2], the IC50 turned out to be 9.4 µM, the MBC P.a came out at 3.5 µM and the MIC P.a is 3.5 µM. In addition, in data set [3], the “MHC (minimum hemolytic concentration)” value was 59.91 µM. Besides, in data set [4], the half-maximal inhibitory concentration (IC50) amounted to 9.4 µM and the “MFC C.a” value came out at 28.2 µM. In data set [6], this sequence displayed an IC50 of less than 6.25 µM. In data set [7], the midpoint of inhibition, the IC50, lay at 3.3 µM; the “MBC K.q” value was 14.1 µM; the “MIC K.q” value amounted to 7.1 µM. In data set [8], this sequence showed an IC50 of 2.2 µM, an MBC E.c of 3.5 µM and an MIC E.c of 3.5 µM.

On to AKLLGKLLRKKIGVL [OrP4], for which, in data set [1], the “MBC S.a” value is given as > 125.2 (> 125.2) µM and the “MIC S.a” value is recorded as > 125.2 (> 125.2) µM. Also, in data set [2], 23.3 µM corresponded to half-maximal inhibition (IC50), the “MBC P.a” value turned out to be 31.3 µM and the “MIC P.a” value was 15.7 µM. Besides, the “MHC (minimum hemolytic concentration)” value in data set [3] amounted to 28.98 µM. Further, in data set [4], the IC50 was found to be 23.3 µM and the “MFC C.a” value was determined as 125.3 µM. The IC50 in data set [6] was more than 100 µM. In data set [7], inhibition was half-maximal at 29 µM (IC50) and the “MBC K.q” value is on record as > 125.2 (> 125.2) µM. For the same sequence, in data set [8], the IC50 stood at 14.8 µM, the “MBC E.c” value turned out to be 62.6 µM and the “MIC E.c” value was 31.3 µM.

In the case of LAKRWLKLLGKLAK [OrP1M], in data set [1], half-maximal inhibition (IC50) was put at 2.3 µM, the MBC S.a turned out to be 3.9 µM and the MIC S.a was 3.9 µM. In data set [2], this sequence gave an IC50 of 10.1 µM, an MBC P.a of 3.9 µM and an MIC P.a of 3.9 µM. In data set [4], the IC50 came out at 10.1 µM and the “MFC C.a” value was 31.6 µM. Besides, the IC50 in data set [5] stood at 21.1 µM. In data set [6], this sequence registered an IC50 of less than 6.25 µM. In data set [7], this sequence returned an IC50 of 4.5 µM, an MBC K.q of 15.8 µM and an MIC K.q of 15.8 µM. In data set [8], this sequence gave a concentration for half-maximal inhibition (IC50) of 1.5 µM and an MBC E.c of 1.9 µM.
